This passage reports Activity, CC50 and EC50 results from ChEMBL document CHEMBL1143923, “Synthesis, anti-HIV-1 activity, and modeling studies of N-3 Boc TSAO compound” (Bioorg Med Chem Lett, 2008).

Active and inactive are the calls of the source. No cut-off for these calls is given here.

Data set [1] has as its system Human immunodeficiency virus 2. Nature of the data set: Antiviral activity against HIV2 ROD in CEM cells assessed as inhibition of viral replication. In kind it is functional, organism-based. As to conditions: CCRF-CEM.
Data set [2] in a line: Cytotoxicity against human CEM cells. In kind it is cell-based. As to conditions: CEM (CCRF-CEM) cells.
The test system of data set [3] is Human immunodeficiency virus 1. Nature of the data set: Antiviral activity against HIV1 3B in CEM cells assessed as inhibition of viral replication. In kind it is functional, organism-based. As to conditions: Human immunodeficiency virus 1, 3B, CCRF-CEM.

As for `Cc1cn([C@@H]2O[C@H](CO[Si](C)(C)C(C)(C)C)[C@@]3(OS(=O)(=O)C=C3N)[C@H]2O[Si](C)(C)C(C)(C)C)c(=O)n(C(=O)OC(C)(C)C)c1=O`, the outcome in data set [1] was inactive. Moreover, in data set [2], the CC50 is 26200 nM. Besides, in data set [3], the EC50 came out at 23 nM.

For the molecule `Cc1cn([C@@H]2O[C@H](CO[Si](C)(C)C(C)(C)C)[C@@]3(OS(=O)(=O)C=C3N)[C@H]2O[Si](C)(C)C(C)(C)C)c(=O)n(C)c1=O`, in data set [1], the result was inactive. Also, the EC50 in data set [3] is 130 nM.

In the case of `Cc1cn([C@@H]2O[C@H](CO[Si](C)(C)C(C)(C)C)[C@@]3(OS(=O)(=O)C=C3N)[C@H]2O[Si](C)(C)C(C)(C)C)c(=O)[nH]c1=O`, the outcome in data set [1] was inactive. Moreover, in data set [3], the EC50 was 60 nM.
